In patent US6855730B2, “3-methylidenyl-2-indolinone modulators of protein kinase” (Sugen, Inc., priority 1998, dated 2005) one finds IC50 data, which are given here for 38 compounds.

A value given as a limit tells only on which side of the number the result lay.

For the assay, the target named is EGFR (Homo sapiens, UniProt P00533). Put plainly: Biochemical EGFR assay (ELISA, A431 cell lysate). On the set-up: A431 cell lysate (Screening Lab, SUGEN, Inc.); host or cells: A431. The conditions noted are these: read-out: bio EGFr IC50. In outline: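 EGFR captured from A431 cell lysate onto anti-EGFR-coated plates, then incubated with test compound for 30 min at room temperature. Tyrosine phosphorylation with ATP/MnCl2 was stopped with EDTA after 5 min and detected by anti-phosphotyrosine ELISA with peroxidase/ABTS read-out.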
Sequence of EGFR (P00533 25-1210): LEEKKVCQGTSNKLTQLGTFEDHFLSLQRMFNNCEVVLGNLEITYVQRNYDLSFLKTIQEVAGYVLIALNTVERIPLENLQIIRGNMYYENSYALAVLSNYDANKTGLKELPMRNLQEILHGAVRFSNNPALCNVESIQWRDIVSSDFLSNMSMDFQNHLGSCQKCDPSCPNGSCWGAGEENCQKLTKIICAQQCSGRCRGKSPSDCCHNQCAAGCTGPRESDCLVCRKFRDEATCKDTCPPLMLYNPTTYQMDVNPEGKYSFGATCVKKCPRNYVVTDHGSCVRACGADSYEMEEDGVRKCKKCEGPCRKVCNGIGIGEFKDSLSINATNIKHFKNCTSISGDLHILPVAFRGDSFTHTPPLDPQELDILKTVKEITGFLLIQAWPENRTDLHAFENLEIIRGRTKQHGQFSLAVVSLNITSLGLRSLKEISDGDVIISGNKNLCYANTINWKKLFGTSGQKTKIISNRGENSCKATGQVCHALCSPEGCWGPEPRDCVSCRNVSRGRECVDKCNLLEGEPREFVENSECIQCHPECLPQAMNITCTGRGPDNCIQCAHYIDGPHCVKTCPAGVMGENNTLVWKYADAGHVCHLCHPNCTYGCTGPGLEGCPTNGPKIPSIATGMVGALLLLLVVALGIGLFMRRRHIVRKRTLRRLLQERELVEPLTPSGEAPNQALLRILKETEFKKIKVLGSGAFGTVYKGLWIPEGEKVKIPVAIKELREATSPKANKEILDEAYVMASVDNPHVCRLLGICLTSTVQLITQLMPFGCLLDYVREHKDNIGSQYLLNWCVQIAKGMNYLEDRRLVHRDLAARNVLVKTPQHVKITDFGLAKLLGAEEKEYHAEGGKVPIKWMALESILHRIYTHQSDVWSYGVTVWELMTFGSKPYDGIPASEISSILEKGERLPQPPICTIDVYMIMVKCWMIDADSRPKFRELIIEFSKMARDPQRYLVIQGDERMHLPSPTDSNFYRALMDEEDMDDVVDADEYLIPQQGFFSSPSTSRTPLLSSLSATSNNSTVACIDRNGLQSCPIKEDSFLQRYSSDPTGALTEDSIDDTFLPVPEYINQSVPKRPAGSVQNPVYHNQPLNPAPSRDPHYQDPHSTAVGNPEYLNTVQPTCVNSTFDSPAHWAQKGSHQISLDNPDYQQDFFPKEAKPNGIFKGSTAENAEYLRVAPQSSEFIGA
(In general: ELISA stands for enzyme-linked immunosorbent assay.)
Regarding `COc1ccc(/C=C2/C(=O)Nc3ccc(F)cc32)cc1C1CCCCC1` [Example 43, 3-(3-Cyclohexyl-4-methoxybenzylidene)-5-fluoro-1,3-dihydroindol-2-one], the IC50 – broadly, the point on the concentration scale where inhibition reaches its midpoint – was > 100 µM.

On to `COc1ccc(/C=C2/C(=O)Nc3ccc(F)cc32)cc1C(C)C` [Example 44, 5-Fluoro-3-(3-isopropyl-4-methoxybenzylidene)-1,3-dihydroindol-2-one], for which the IC50 is > 100 µM.

Regarding `COc1cc(C)c(/C=C2/C(=O)Nc3ncccc32)cc1C(C)C` [Example 45, 3-(5-Isopropyl-4-methoxy-2-methylbenzylidene)-1,3-dihydro-pyrrolo[2,3-b]pyridin-2-one], the IC50 was found to be 24 µM. With `CCOc1cccc(-c2cc(C=C3C(=O)Nc4ccccc43)ccc2OC)c1` [Example 46, 3-(3′-Ethoxy-6-methoxybiphenyl-3-ylmethylene)-1,3-dihydroindol-2-one], the IC50 is > 100 µM. Next, `COc1ccc(/C=C2/C(=O)Nc3ncccc32)cc1C1CCCC1` [Example 47, 3-(3-Cyclopentyl-4-methoxybenzylidene)-1,3-dihydropyrrolo[2,3-b]pyridin-2-one]: 36.8 µM. In the case of `COc1ccc(/C=C2\C(=O)Nc3cccc(C)c32)cc1C1CCCC1` [Example 48, 3-(3-Cyclopentyl-4-methoxybenzylidene)-4-methyl-1,3-dihydroindol-2-one], the IC50 is > 100 µM. With `COc1cc(C=C2C(=O)Nc3ccccc32)c(-c2ccccc2OC)cc1OC` [Example 49, 3-(4,5,2′-Trimethoxybiphenyl-2-ylmethylene)-1,3-dihydroindol-2-one] the figure was > 100 µM; with `CC(=O)Nc1ccc2c(c1)NC(=O)/C2=C/c1ccc(OCCN2CCOCC2)c(-c2ccsc2)c1` [Example 50, N-{3-[4-(2-Morpholin-4-ylethoxy)-3-thiophen-3-ylbenzylidene]-2-oxo-2,3-dihydro-1H-indol-6-yl}-acetamide], > 100 µM. Next, `COc1ccc(/C=C2/C(=O)Nc3ccc(Cl)cc32)cc1C1CCCCC1` [Example 51, 5-Chloro-3-(3-cyclohexyl-4-methoxybenzylidene)-1,3-dihydroindol-2-one]: > 100 µM; `COc1c(C(C)C)cc(/C=C2/C(=O)Nc3cc(NC(=O)OC(C)(C)C)ccc32)cc1C(C)C` [Example 52, [3-(3,5-Diisopropyl-4-methoxybenzylidene)-2-oxo-2,3-dihydro-1H-indol-6-yl]-carbamic acid tert-butyl ester]: > 100 µM. For `COc1c(C(C)C)cc(/C=C2\C(=O)Nc3cccc(C)c32)cc1C(C)C` [Example 53, 3-(3,5-Diisopropyl-4-methoxybenzylidene)-4-methyl-1,3-dihydroindol-2-one], the IC50 was > 100 µM. In the case of `COc1c(C(C)C)cc(/C=C2/C(=O)Nc3ccc(Br)cc32)cc1C(C)C` [Example 54, 5-Bromo-3-(3,5-diisopropyl-4-methoxybenzylidene)-1,3-dihydroindol-2-one], the IC50 was > 100 µM. As to `CC(=O)Nc1ccc2c(c1)NC(=O)/C2=C/c1ccc(OCCN2CCOCC2)c(C(C)(C)C)c1` [Example 55, N-{3-[3-tert-Butyl-4-(2-morpholin-4-ylethoxy)-benzylidene]-2-oxo-2,3-dihydro-1H-indol-6-yl}-acetamide], the IC50 is > 100 µM.

On to `COc1c(C)cc(/C=C2/C(=O)Nc3ncccc32)cc1C` [Example 56, 3-(4-Methoxy-3,5-dimethylbenzylidene)-1,3-dihydropyrrolo[2,3-b]pyridin-2-one], for which the IC50 is 10.1 µM. With `CC(C)c1cc(/C=C2/C(=O)Nc3ccc(Br)cc32)cc(C(C)C)c1OCCN1CCOCC1` [Example 57, 5-Bromo-3-[3,5-diisopropyl-4-(2-morpholin-4-ylethoxy)benzylidene]-1,3-dihydroindol-2-one], the IC50 is > 100 µM.

As for `CCOc1cccc(-c2cc(OC)c(OC)cc2/C=C2/C(=O)Nc3ccccc32)c1` [Example 58, 3-(3′-Ethoxy-4,5-dimethoxybiphenyl-2-ylmethylene)-1,3-dihydroindol-2-one], the IC50 is > 100 µM. As for `COc1ccc(/C=C2/C(=O)Nc3ccc(Cl)cc32)cc1-c1cccs1` [Example 59, 5-chloro-3-(4-Methoxy-3-thiophen-2-ylbenzylidene)-1,3-dihydroindol-2-one], the IC50 was > 100 µM.

Regarding `COc1ccc(/C=C2/C(=O)Nc3ccc(Cl)cc32)cc1-c1cccnc1` [Example 60], the IC50 was > 100 µM. With `COc1cccc(-c2cc(OC)c(OC)cc2/C=C2/C(=O)Nc3ccc(Cl)cc32)c1` [Example 61, 5-Chloro-3-(4,5-3′-Trimethoxybiphenyl-2-ylmethylene)-1,3-dihydroindol-2-one], the IC50 was > 100 µM. For `COc1cc(/C=C2/C(=O)Nc3ccccc32)c(-c2ccc3ccccc3c2)cc1OC` [Example 62, 3-(4,5-Dimethoxy-2-naphthalen-2-ylbenzylidene)-1,3-dihydroindol-2-one], the IC50 was > 100 µM.

For the compound `COc1ccc2c(c1)NC(=O)/C2=C/c1ccc(OC)c(-c2ccsc2)c1` [Example 64, 6-Methoxy-3-(4-methoxy-3-thiophen-3-ylbenzylidene)-1,3-dihydroindol-2-one], the IC50 was > 100 µM.

Consider `COc1ccc(/C=C2/C(=O)Nc3ccccc32)cc1-c1ccccc1` [Example 65, 3-(6-Methoxybiphenyl-3-ylmethylene)-1,3-dihydroindol-2-one], for which the IC50 is > 100 µM. Turning to `O=C1Nc2ccccc2/C1=C\c1ccc2c(c1)CCO2` [Example 66, 3-(2,3-Dihydrobenzofuran-5-ylmethylene)-1,3-dihydroindol-2-one], the IC50 is > 100 µM.

With `COc1ccc(/C=C2/C(=O)Nc3ccc(Cl)cc32)cc1-c1ccccc1` [Example 67, 5-Chloro-3-(6-methoxybiphenyl-3-ylmethylene)-1,3-dihydroindol-2-one], the IC50 was > 100 µM. Consider `COc1ccc(/C=C2\C(=O)Nc3cccc(C)c32)cc1C1CCCCC1` [Example 68, 3-(3-Cyclohexyl-4-methoxybenzylidene)-4-methyl-1,3-dihydroindol-2-one], for which the IC50 was > 100 µM. With `Cc1cccc2c1/C(=C/c1ccc3c(c1)CCO3)C(=O)N2` [Example 69, 3-(2,3-Dihydrobenzofuran-5-ylmethylene)-4-methyl-1,3-dihydroindol-2-one] the figure was > 100 µM. Next, `COc1ccc(/C=C2/C(=O)Nc3ncccc32)cc1C(C)C` [Example 70, 3-(3-Isopropyl-4-methoxybenzylidene)-1,3-dihydropyrrolo[2,3-b]pyridine-2-one]: 22.6 µM; `COc1ccc(/C=C2/C(=O)Nc3ncccc32)cc1-c1ccccc1` [Example 71, 3-(6-Methoxybiphenyl-3-ylmethylene)-1,3-dihydropyrrolo[2,3-b]pyridin-2-one]: 29.6 µM.

For `COc1ccc(/C=C2/C(=O)Nc3ncccc32)cc1C1CCCCC1` [Example 72, 3-(3-Cyclohexyl-4-methoxybenzylidene)-1,3-dihydropyrrolo[2,3-b]pyridin-2-one], the IC50 was found to be 11.8 µM. With `O=C1Nc2ncccc2/C1=C\c1ccc2c(c1)CCO2` [Example 73, 3-(2,3-Dihydrobenzofuran-5-ylmethylene)-1,3-dihydropyrrolo[2,3-b]pyridin-2-one], the IC50 was 7.9 µM. As to `COc1c(C(C)C)cc(/C=C2/C(=O)Nc3ncccc32)cc1C(C)C` [Example 74, 3-(3,5-Diisopropyl-4-methoxybenzylidene)-1,3-dihydropyrrolo[2,3-b]pyridin-2-one], the IC50 amounted to 13.2 µM.

Take `Cc1cc(CCC(=O)O)c(/C=C2\C(=O)Nc3cc(-c4ccc(F)cc4)ccc32)[nH]1` [Example 107, 3-{2-[6-(4-Fluorophenyl)-2-oxo-1,2-dihydroindol-3-ylidenemethyl]-5-methyl-1H-pyrrol-3-yl}propionic acid]: the IC50 is > 100 µM. With `CCOC(=O)c1c(C)[nH]c(/C=C2\C(=O)Nc3cc(-c4ccc(F)cc4)ccc32)c1CCC(=O)O` [Example 108, 4-(2-Carboxyethyl)-5-[6-(4-fluorophenyl)-2-oxo-1,2-dihydro-indol-3-ylidenemethyl]-2-methyl-1H-pyrrole-3-carboxylic acid ethyl ester] the figure was > 100 µM; with `COc1ccccc1-c1ccc2c(c1)NC(=O)/C2=C\c1[nH]c(C)cc1CCC(=O)O` [Example 109, 3-{2-[6-(2-Methoxyphenyl)-2-oxo-1,2-dihydroindol-3-ylidenemethyl]-5-methyl-1H-pyrrol-3-yl}-propionic acid], > 100 µM; with `CCOC(=O)c1c(C)[nH]c(/C=C2\C(=O)Nc3cc(-c4ccccc4OC)ccc32)c1CCC(=O)O` [Example 110, 4-(2-Carboxyethyl)-5-[6-(2-methoxyphenyl)-2-oxo-1,2-dihydro-indol-3-ylidenemethyl]-2-methyl-1H-pyrrol-3-yl-carboxylic acid ethyl ester], > 100 µM. Next, `Cc1cc(CCC(=O)O)c(/C=C2\C(=O)Nc3ccc(Cl)cc32)[nH]1` [Example 111, 3-[2-(5-Chloro-2-oxo-1,2-dihydroindol-3-ylidenemethyl)-5-methyl-1H-pyrrol-3-yl]propionic acid]: > 100 µM; `O=C1Nc2ccc(Br)cc2/C1=C/c1cc2ccccc2[nH]1` [Example 165, 5-Bromo-3-(1H-indol-2-ylmethylene)-1,3-dihydro-indol-2-one]: > 100 µM; `Cc1cccc2c1/C(=C/c1cc3ccccc3[nH]1)C(=O)N2` [Example 166, 3-(1H-indol-2-ylmethylene)-4-methyl-1,3-dihydro-indol-2-one]: > 100 µM.
